The source of these data is patent publication US8329686B2, “Isatin analogues and uses therefor” (Washington University, priority 2006, dated 2012).

Assay type in all cases: biochemical
One assay addresses T1, caspase 1 (Homo sapiens, UniProt P29466).
T1 construct: purchased BIOMOL Research Laboratories (Plymouth Meeting, Pa.)
T1 sequence (P29466 120-297 limits assumed): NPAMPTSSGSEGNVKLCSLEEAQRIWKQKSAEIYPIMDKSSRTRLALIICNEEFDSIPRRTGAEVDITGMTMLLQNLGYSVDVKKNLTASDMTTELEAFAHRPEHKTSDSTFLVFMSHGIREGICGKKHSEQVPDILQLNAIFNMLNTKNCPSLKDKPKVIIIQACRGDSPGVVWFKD
T1 sequence (P29466 317-404 limits assumed): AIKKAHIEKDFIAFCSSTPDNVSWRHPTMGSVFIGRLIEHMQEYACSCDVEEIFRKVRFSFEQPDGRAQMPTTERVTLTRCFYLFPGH
In words: Enzyme inhibition assay, caspase 1 (fluorogenic Ac-YVAD-AMC).

The target in assay [1] is T2, caspase-3 (Homo sapiens, UniProt P42574).
T2 construct: purchased Sigma-Aldrich (St. Louis, Mo.)
T2 sequence (P42574 29-175 limits assumed): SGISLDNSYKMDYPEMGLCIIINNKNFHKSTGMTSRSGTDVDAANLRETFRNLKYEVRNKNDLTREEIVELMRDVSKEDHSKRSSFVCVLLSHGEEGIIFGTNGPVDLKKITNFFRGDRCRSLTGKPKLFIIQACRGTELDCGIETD
T2 sequence (P42574 176-277 limits assumed): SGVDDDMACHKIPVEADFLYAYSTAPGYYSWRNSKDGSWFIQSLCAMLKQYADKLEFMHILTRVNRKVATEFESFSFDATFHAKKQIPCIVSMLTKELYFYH
In words: Enzyme inhibition assay, caspase 3 (fluorogenic Ac-DEVD-AMC).
Procedure: (§1) Enzyme Assays. Inhibition of recombinant human caspase-3 and other caspases by the isatin analogues was assessed using a fluorometric assay by measuring the accumulation of a fluorogenic product, 7-amino-4-methylcoumarin (7-AMC).
(§2) Enzyme Inhibition Assays. Recombinant human caspases (3, 6, 7, and 8) and their peptide-specific substrates (Ac-DEVDAMC, Ac-VEID-AMC, Ac-DEVD-AMC, and Ac-IETD-AMC, respectively) were purchased from Sigma-Aldrich (St. Louis, Mo.) with the exception of caspase 1 and its substrate (Ac-YVAD-AMC), which were obtained from BIOMOL Research Laboratories (Plymouth Meeting, Pa.). The enzymatic activity of caspases was determined by measuring the accumulation of the fluorogenic product 7-amino-4-methylcoumarin (AMC). All assays were prepared in 96-well format at a volume of 210 μL per well and consisted of 100 mM Na+ HEPES (pH 7.4), 10% sucrose, 100 mM NaCl, 0.1% CHAPS, 5 mM 2-mercaptoethanol, 2 mM EDTA, 10 μM Ac-YVAD-AMC (caspase 1); 20 mMNa^+ HEPES (pH 7.4), 10% sucrose, 100 mMNaCl, 0.1% CHAPS, 2 mM EDTA, 10 μM Ac-DEVD-AMC (caspase 3); 20 mM Na^+ HEPES (pH 7.4), 10% sucrose, 100 mM NaCl, 0.1% CHAPS, 2 mM EDTA, 10 μM Ac-VEID-AMC (caspase 6); 20 mM Na+ HEPES (pH 7.4), 100 mM NaCl, 10% sucrose, 0.1% CHAPS, 5 mM 2-mercaptoethanol, 2 mM EDTA, 10 μM Ac-DEVD-AMC (caspase 7); 20 mM Na+ HEPES (pH 7.4), 10% sucrose, 100 mM NaCl, 0.1% CHAPS, 2 mM EDTA, 10 μM Ac-IETD-AMC (caspase 8).
(§3) Recombinant caspases were first assayed to determine the optimal concentration for each experiment. Optimal concentrations were based in the linear range of the enzyme activation curves. Peptide inhibitors with known IC50 values were tested together with the compounds as a control for each caspase assay. […] Peptide and nonpeptide inhibitors were dissolved in DMSO, and a 2 serial dilution was performed prior to screening in order to obtain desired concentrations. 10 μL was added to each well containing 100 μL caspase solution and allowed to incubate on ice for 30 min. […] The final concentration of DMSO in all wells was 5% of the total volume. In caspase-1 and caspase-7 assays, 10 mM 2-mercaptoethanol was added to the substrate solution for full activation of the enzymes.
(§4) Compounds were tested in duplicate, and IC50 curves were calculated for all inhibitors assayed. Final IC50s were the average of three independent experiments.

For a further assay, the target named is T3, caspase 6 (Homo sapiens, UniProt P55212).
T3 construct: purchased Sigma-Aldrich (St. Louis, Mo.)
T3 sequence (P55212 24-179 limits assumed): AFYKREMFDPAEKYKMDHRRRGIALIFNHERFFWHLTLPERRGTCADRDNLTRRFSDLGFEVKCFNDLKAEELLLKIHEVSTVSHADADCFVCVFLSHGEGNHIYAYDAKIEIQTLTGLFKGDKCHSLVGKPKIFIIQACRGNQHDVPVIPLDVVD
T3 sequence (P55212 194-293 limits assumed): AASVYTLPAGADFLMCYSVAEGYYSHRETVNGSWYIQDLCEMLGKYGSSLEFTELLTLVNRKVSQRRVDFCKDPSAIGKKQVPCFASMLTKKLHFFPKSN
In words: Enzyme inhibition assay, caspase 6 (fluorogenic Ac-VEID-AMC).

The next assay concerns the target T4, caspase 7 (Homo sapiens, UniProt P55210).
T4 construct: purchased Sigma-Aldrich (St. Louis, Mo.)
T4 sequence (P55210 24-198 limits assumed): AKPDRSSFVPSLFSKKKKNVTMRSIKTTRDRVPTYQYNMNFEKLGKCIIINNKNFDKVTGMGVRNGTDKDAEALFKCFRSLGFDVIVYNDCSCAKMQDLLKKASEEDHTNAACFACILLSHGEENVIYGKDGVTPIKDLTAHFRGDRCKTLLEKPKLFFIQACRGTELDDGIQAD
T4 sequence (P55210 207-303 limits assumed): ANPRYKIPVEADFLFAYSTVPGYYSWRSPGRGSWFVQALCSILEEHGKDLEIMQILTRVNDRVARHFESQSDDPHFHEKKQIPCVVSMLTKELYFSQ
In words: Enzyme inhibition assay, caspase 7 (fluorogenic Ac-DEVD-AMC).

A further assay concerns the target T5, caspase 8 (Homo sapiens, UniProt Q14790).
T5 construct: purchased Sigma-Aldrich (St. Louis, Mo.)
As to the kind of experiment: Enzyme inhibition assay, caspase 8 (fluorogenic Ac-IETD-AMC).

The target in assay [2] is T2, caspase-3. As to the kind of experiment: Enzyme kinetic studies versus Ac-DEVD-AMC. The protocol: Enzyme Kinetic Studies. The inhibition profile for compound 21c was determined for caspase-3 in the assay buffer. The concentration of Ac-DEVD-AMC was varied from 6.25 to 100 μM, and the concentration of 21c was varied from 0 to 20 nM. The kinetic parameters of 21c were obtained by fitting initial-rate data to
[formula] where v is the observed velocity, S is the substrate concentration, Vm is the velocity at saturating substrate, Km is the Michaelis constant of the substrate, I is the inhibitor concentration, and Ki is the dissociation constant of the inhibitor from the E·I complex. The data were analyzed using GraFit 4.0 (Erithacus Software, Staines, U.K.)
Kinetic studies were also conducted in order to determine the mechanism of inhibition of caspase-3 activity by compound 21c.

For assay [3], the target named is T2, caspase-3. As to the kind of experiment: Reversibility assay (gel filtration).
Procedure: Then the mixtures were run through the gel filtration column (Bio-Spin 6 Tris columns from Bio-Rad Laboratories, Hercules, Calif.) to remove the free compounds according to the manufacture's instruction. Briefly, 50 μl of the incubation mixture was loaded on the top of the column. The column was then centrifuged at 1000×g for 4 min at 4° C. The resulting elutant was designated as elutant A (for no treatment sample), B (for Z-DEVD-FMK-treated sample) or C (for 30d-treated sample). The elutant was assayed for caspase 3 activity as described in enzyme inhibition assays above. Briefly, 40 μl of the elutant, 60 μl assay buffer and 100 μl substrate (10 μM Ac-DEVD-AMC) were incubated for 1 hour at 37° C. Amount of AMC released was determined using a Victor microplate fluorometer. The recovered caspase-3 activity after gel filtration (%) was calculated.

Structures are written as SMILES. Like-named read-outs stand apart in the source and are kept apart here. Some results are limits rather than exact numbers.

T5 sequence (Q14790 217-374 limits assumed): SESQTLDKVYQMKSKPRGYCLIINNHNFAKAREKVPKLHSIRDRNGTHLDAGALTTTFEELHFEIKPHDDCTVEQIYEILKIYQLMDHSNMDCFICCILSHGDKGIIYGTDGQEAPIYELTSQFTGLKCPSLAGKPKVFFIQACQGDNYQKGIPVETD
T5 sequence (Q14790 385-479 limits assumed): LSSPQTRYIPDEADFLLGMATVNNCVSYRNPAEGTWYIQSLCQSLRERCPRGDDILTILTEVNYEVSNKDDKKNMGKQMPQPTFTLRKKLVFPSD
Procedure for caspase 6: as §1, §2, §3, §4
Procedure for caspase 7: as §1, §2, §3, §4
Procedure for caspase 8: as §1, §2, §3, §4

In the case of `COc1ccc(CN2C(=O)C(=O)c3cc(S(=O)(=O)N4CCCC4COc4cccnc4)ccc32)cc1` (centres unmarked) [Compound 21c, 1-(4-Methoxybenzyl)-5-(2-(pyridin-3-yl-oxymethyl)-pyrrolidine-1-sulfonyl)-1H-indole-2,3-dione], the IC50 was above 10000 nM on caspase 1 (Table 6, read-out: IC50 (nM) caspase-1); 3.9 nM on caspase-3 [1] (read-out: IC50 for caspase-3); above 5000 nM at caspase 6 (Table 6, read-out: IC50 (nM) caspase-6); 15.1 ± 1.2 nM on caspase 7 (Table 6, read-out: IC50 (nM) caspase-7); above 50000 nM at caspase 8 (Table 6, read-out: IC50 (nM) caspase-8). The Ki at caspase-3 [2] (competitive versus Ac-DEVD-AMC, read-out: calculated Ki value) is 4.4 nM. Further, the “mechanism of inhibition of caspase-3 activity” value on caspase-3 [2] (versus Ac-DEVD-AMC) is recorded as “competitive inhibition”.

Regarding `COc1ccc(CN2C(=O)C(=C(C#N)C#N)c3cc(S(=O)(=O)N4CCCC4COc4cccnc4)ccc32)cc1` (centres unmarked) [Compound 30d, 2-{1-(4-Methoxy-benzyl)-2-oxo-5-[2-(pyridin-3-yloxymethyl)-pyrrolidine-1-sulfonyl]-1,2-dihydro-indol-3-yl-idene}-malononitrile], the IC50 against caspase 1 was 3900 nM; on caspase 1 (IC50 (nM) Casp-1, Table 7) it was 3900 ± 530 nM; on caspase 1 (read-out: IC50 for caspase-1), 2700 to 3200 nM; against caspase-3 [1] (IC50 (nM) Casp-3, Table 7), 7.8 ± 1.5 nM; on caspase-3 [1] (IC50 (nM) Caspase 3, Table 2), 7.8 ± 1.5 nM; at caspase-3 [1] (IC50 for caspase-3) it was 7.8 nM. For the same compound, the IC50 against caspase 6 was 610 ± 113 nM; on caspase 6 (read-out: IC50 for caspase-6), 515 to 770 nM; on caspase 7 (IC50 (nM) Casp-7, Table 7) it was 29.6 ± 1.4 nM; against caspase 7 (IC50 (nM) Caspase 7, Table 2), 29.6 ± 1.4 nM; on caspase 7 (read-out: IC50 for caspase-7), 15.1 nM; at caspase 8 (Table 2, read-out: IC50 (nM) Caspase 8), above 50000 nM. The IC50 on caspase 8 (Table 7, read-out: IC50 (nM) Casp-8) is above 50000 nM; at caspase 8 (read-out: IC50 for caspase-8), above 50000 nM. On caspase-3 [3] (3 μM, 1 hour on ice, before gel filtration), the “caspase 3 activity after incubation with inhibitor” value was “fully inhibited”. In addition, on caspase-3 [3] (elutant compared to untreated elutant A), the “recovered caspase-3 activity after gel filtration” value is “full caspase 3 activity”.
